This is an account of results in patent publication US20260217708A1, “FUSED BENZAZEPINE DERIVATIVES FOR USE IN THE TREATMENT OF CANCER AND EPILEPSY” (UCB BIOPHARMA SRL, priority 2023, published 2026).

For experiment [1], the target named is T1, system Xc^− (Homo sapiens, UniProt Q9UPY5).
T1 sequence (Q9UPY5 1-501): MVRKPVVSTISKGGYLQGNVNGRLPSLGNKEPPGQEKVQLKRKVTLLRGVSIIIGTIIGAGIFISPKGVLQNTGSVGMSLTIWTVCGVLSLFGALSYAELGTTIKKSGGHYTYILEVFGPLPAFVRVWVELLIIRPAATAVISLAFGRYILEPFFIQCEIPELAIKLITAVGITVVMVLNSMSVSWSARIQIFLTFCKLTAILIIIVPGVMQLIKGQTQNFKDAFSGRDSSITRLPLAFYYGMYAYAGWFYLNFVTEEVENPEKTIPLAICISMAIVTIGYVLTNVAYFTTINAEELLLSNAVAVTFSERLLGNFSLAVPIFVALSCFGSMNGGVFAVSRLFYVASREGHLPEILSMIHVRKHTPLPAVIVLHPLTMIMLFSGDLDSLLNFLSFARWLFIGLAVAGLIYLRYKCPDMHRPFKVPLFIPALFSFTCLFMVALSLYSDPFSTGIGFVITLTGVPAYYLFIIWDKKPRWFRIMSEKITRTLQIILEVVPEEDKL
T1 sequence (P08195 1-529 partner): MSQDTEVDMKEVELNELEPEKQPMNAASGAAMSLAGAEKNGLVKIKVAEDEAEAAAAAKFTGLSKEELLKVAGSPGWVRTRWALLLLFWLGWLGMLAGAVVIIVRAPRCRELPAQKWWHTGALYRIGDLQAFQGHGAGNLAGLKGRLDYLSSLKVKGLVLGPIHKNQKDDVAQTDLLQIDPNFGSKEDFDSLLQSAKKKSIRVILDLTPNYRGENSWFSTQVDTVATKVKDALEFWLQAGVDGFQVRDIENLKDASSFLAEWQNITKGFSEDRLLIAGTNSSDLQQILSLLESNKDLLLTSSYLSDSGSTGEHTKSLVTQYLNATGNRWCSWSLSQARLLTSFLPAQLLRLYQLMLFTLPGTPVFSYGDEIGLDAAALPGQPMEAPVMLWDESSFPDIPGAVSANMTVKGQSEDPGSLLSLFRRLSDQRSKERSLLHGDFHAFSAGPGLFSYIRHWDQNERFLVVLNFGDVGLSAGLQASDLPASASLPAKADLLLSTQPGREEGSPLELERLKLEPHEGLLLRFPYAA
Briefly: [^14C]L-Cystine uptake assay. The format is cell-based. On the set-up: endogenous in cells; host or cells: H4 cells. The settings on record: H4 cells, sodium-free HEPES buffer, 0.5 μM L-[14C]Cystine and 4.5 μM L-Cystine, 1 hour at 37° C.; read-out: pIC50 [^14C] L-Cystine uptake assay (converted). The procedure, abridged: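 Compound effect is given as pIC50, taken between controls of 1% DMSO and 50 μM Erastin. Human H4 cells were pretreated 15 min with compound in sodium-free buffer, then took up 0.5 μM [14C]cystine with 4.5 μM cold cystine for 1 hour at 37° C, read by scintillation proximity counting.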

For experiment [2], the target named is T1, system Xc^−. Briefly: Cystine-induced glutamate release assay. The format is cell-based. On the set-up: endogenous in cells; host or cells: H4 cells. The following applies: H4 cells, sodium-free HEPES buffer, 50 μM L-Cystine, 2 hours, Amplex Red glutamate readout; read-out: pIC50 Cystine-induced glutamate release assay (converted). The procedure, abridged: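 IC50 (reported as pIC50) normalized to DMSO 1% and Erastin 50 μM controls, from Amplex Red fluorescence of glutamate exported into supernatant. H4 cells were washed into sodium-free buffer to exclude EAAT transport, then given compound with 50 μM L-cystine for 2 h in the incubator.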

The structures appear in SMILES notation.

With `Cc1cc2c(n(C)c1=O)-c1ccccc1N(C)C(=O)N2CC(=O)Nc1ccc(Cl)c(F)c1` [#166, N-(4-chloro-3-fluoro-phenyl)-2-(1,3,7-trimethyl-2,6-dioxo-pyrido[3,2-d][1,3]benzodiazepin-5-yl)acetamide], the IC50 at system Xc^− [1] and on system Xc^− [2] was 0.0158 to 0.0398 µM each time.
For the compound `Cc1cc2c(c(F)n1)-c1cccnc1C(C)C(=O)N2CC(=O)Nc1ccc(C(F)(F)F)cc1` (stereo not shown) [#84, 2-(3-fluoro-5,10-dimethyl-9-oxo-4,8,12-triazatricyclo[9.4.0.0^2,7]pentadeca-1(11),2(7),3,5,12,14-hexaen-8-yl)-N-[4-(trifluoromethyl)phenyl]acetamide], the results for the IC50 at system Xc^− [1] and on system Xc^− [2] were less than 0.0158 µM and 0.0158 to 0.0398 µM, respectively.
As for `COc1nc(C)cc2c1-c1cccnc1CC(=O)N2CC(=O)Nc1ccc(C#N)cc1` [#77, N-(4-cyanophenyl)-2-(3-methoxy-5-methyl-9-oxo-4,8,12-triazatricyclo [9.4.0.0^2,7]pentadeca-1(11),2,4,6,12,14-hexaen-8-yl)acetamide], the IC50 was 0.1 to 0.501 µM at system Xc^− [1] and 0.0398 to 0.1 µM on system Xc^− [2].
On the same counts, the results for `COc1ccc2c(c1)N(CC(=O)Nc1ccc(Cl)c(F)c1)C(=O)C(C)c1ncccc1-2` (stereo not shown) [#306, N-(4-chloro-3-fluoro-phenyl)-2-(9-methoxy-5-methyl-6-oxo-5H-pyrido[2,3-d][1]benzazepin-7-yl)acetamide] are 0.0398 to 0.1 µM and 0.0158 to 0.0398 µM.
As to `CC1C(=O)N(CC(=O)Nc2ccc(Cl)c(F)c2)c2cc(Cl)cc(F)c2-c2ncncc21` (single isomer, unassigned) [#418, 2-[9-chloro-11-fluoro-5-methyl-6-oxo-5H-pyrimido[5,4-d][1]benzazepin-7-yl]-N-(4-chloro-3-fluoro-phenyl)acetamide], the IC50 at system Xc^− [1] and at system Xc^− [2] was 0.0398 to 0.1 µM throughout.
As for `Cc1cc2c(cn1)-c1cccnc1[C@@H](C)C(=O)N2CC(=O)Nc1ccc(C(F)(F)F)cc1` (single isomer, unassigned) [#201, Enantiomer (10R) or (10S) of 2-[5,10-dimethyl-9-oxo-4,8,12-triazatricyclo[9.4.0.0^2,7]pentadeca-1(11),2(7),3,5,12,14-hexaen-8-yl]-N-[4-(trifluoromethyl)phenyl]acetamide], the IC50 is less than 0.0158 µM at system Xc^− [1] and 0.0158 to 0.0398 µM on system Xc^− [2].
For `Cc1cc2c(c(F)n1)-c1cccnc1[C@@H](C)C(=O)N2CC(=O)Nc1ccc(C(C)(F)F)c(F)c1` (single isomer, unassigned) [#236], in that order: 0.0158 to 0.0398 µM and 0.0158 to 0.0398 µM.
Take `Cc1cc2c(c(F)n1)-c1cc[nH]c(=O)c1CC(=O)N2CC(=O)Nc1ccc(C(F)(F)F)cc1` [#183, 2-(3-fluoro-5-methyl-9,12-dioxo-4,8,13-triazatricyclo[9.4.0.0^2,7]pentadeca-1(11),2(7),3,5,14-pentaen-8-yl)-N-[4-(trifluoromethyl)phenyl]acetamide]: the IC50 at system Xc^− [1] is 0.0398 to 0.1 µM; on system Xc^− [2], 0.1 to 0.501 µM.
On to `Cc1cc2c(c(F)n1)-c1cccnc1[C@@H](C)C(=O)N2CC(=O)Nc1ccc(C2CC2)cc1` [#142, N-(4-cyclopropylphenyl)-2-[(10R)-3-fluoro-5,10-dimethyl-9-oxo-4,8,12-triazatricyclo[9.4.0.0^2,7]pentadeca-1(11),2(7),3,5,12,14-hexaen-8-yl]acetamide], for which the IC50 at system Xc^− [1] is less than 0.0158 µM; at system Xc^− [2] it was 0.0158 to 0.0398 µM.
Take `CC1C(=O)N(CC(=O)Nc2ccc(C(F)F)cc2)c2cc(N3CC4(CC4)C3)nc(F)c2-c2cccnc21` (single isomer, unassigned) [#283, 2-[5-(5-azaspiro[2.3]hexan-5-yl)-3-fluoro-10-methyl-9-oxo-4,8,12-triazatricyclo[9.4.0.0^2,7]pentadeca-1(15),2,4,6,11,13-hexaen-8-yl]-N-[4-(difluoromethyl)phenyl]acetamide]: the IC50 at system Xc^− [1] is 0.0158 to 0.0398 µM; at system Xc^− [2], less than 0.0158 µM.
On to `COCCN(C)c1cc2c(c(F)n1)-c1cccnc1C(C)C(=O)N2CC(=O)Nc1ccc(Cl)c(F)c1` (stereo not shown) [#264, N-(4-chloro-3-fluoro-phenyl)-2-[3-fluoro-5-[2-methoxyethyl(methyl)amino]-10-methyl-9-oxo-4,8,12-triazatricyclo[9.4.0.0^2,7]pentadeca-1(15),2(7),3,5,11,13-hexaen-8-yl]acetamide], for which the results for the IC50 on system Xc^− [1] and on system Xc^− [2] were less than 0.0158 µM and 0.0158 to 0.0398 µM, respectively.
As to `CC1C(=O)N(CC(=O)Nc2ccc(Cl)c(F)c2)c2cc(C#N)c(F)cc2-c2cccnc21` (single isomer, unassigned) [#394, N-(4-chloro-3-fluoro-phenyl)-2-[9-cyano-10-fluoro-5-methyl-6-oxo-5H-pyrido[2,3-d][1]benzazepin-7-yl]acetamide], the IC50 on system Xc^− [1] is 0.0398 to 0.1 µM; on system Xc^− [2] it was 0.0158 to 0.0398 µM.
With `CO[C@H]1C(=O)N(CC(=O)Nc2ccc(C(F)(F)F)cc2)c2cc(C)nc(Cl)c2-c2cccnc21` (single isomer, unassigned) [#210, Enantiomer (10S) or (10R) of 2-[3-chloro-10-methoxy-5-methyl-9-oxo-4,8,12-triazatricyclo[9.4.0.0^2,7]pentadeca-1(11),2(7),3,5,12,14-hexaen-8-yl]-N-[4-(trifluoromethyl)phenyl]acetamide], the results for the IC50 on system Xc^− [1] and at system Xc^− [2] were less than 0.0158 µM and 0.0158 to 0.0398 µM, respectively.
For `Cc1cc2c(cc1C)N(CC(=O)Nc1ccc(Cl)c(F)c1)C(=O)Cc1cccnc1-2` [#1, N-(4-chloro-3-fluoro-phenyl)-2-(9,10-dimethyl-6-oxo-5-H-pyrido[3,2-d][1]benzazepin-7-yl)acetamide], the IC50 on system Xc^− [1] was 0.0398 to 0.1 µM; at system Xc^− [2] it was 0.1 to 0.501 µM.
`CC1C(=O)N(CC(=O)Nc2ccc(Cl)c(F)c2)c2cc(C(F)F)ccc2-c2cccnc21` (stereo not shown) [#341, N-(4-chloro-3-fluoro-phenyl)-2-[9-(difluoromethyl)-5-methyl-6-oxo-5H-pyrido[2,3-d][1]benzazepin-7-yl]acetamide]: the IC50 on system Xc^− [1] is 0.0398 to 0.1 µM; on system Xc^− [2] it was 0.0158 to 0.0398 µM.
On the same counts, the results for `Cc1cc2c(c(F)n1)-c1cccnc1[C@@H](C)C(=O)N2CC(=O)Nc1ccc(Cl)c(F)c1F` [#249, N-(4-chloro-2,3-difluoro-phenyl)-2-[(10R)-3-fluoro-5,10-dimethyl-9-oxo-4,8,12-triazatricyclo[9.4.0.0^2,7]pentadeca-1(15),2,4,6,11,13-hexaen-8-yl]acetamide] are 0.1 to 0.501 µM and 0.0398 to 0.1 µM.
For `O=C(CN1C(=O)C(CO)c2ncccc2-c2c(F)cc(Cl)cc21)Nc1ccc(Cl)c(F)c1` (single isomer, unassigned) [#382, 2-[9-chloro-11-fluoro-5-(hydroxymethyl)-6-oxo-5H-pyrido[2,3-d][1]benzazepin-7-yl]-N-(4-chloro-3-fluoro-phenyl)acetamide], in that order: 0.0158 to 0.0398 µM and 0.0158 to 0.0398 µM.
`Cc1cc2c(cc1C)N(CC(=O)Nc1ccc(C(F)(F)F)cc1)C(=O)Cc1ccncc1-2` [#24, 2-(9,10-dimethyl-6-oxo-5H-pyrido[4,3-d][1]benzazepin-7-yl)-N-[4-(trifluoromethyl)phenyl]acetamide]: the IC50 on system Xc^− [1] is 0.0158 to 0.0398 µM; on system Xc^− [2], 0.1 to 0.501 µM.
`Cc1cc2c(c(F)n1)-c1cccnc1C(C)C(=O)N2CC(=O)Nc1ccc2c(cnn2C)c1` (stereo not shown) [#129, 2-(3-fluoro-5,10-dimethyl-9-oxo-4,8,12-triazatricyclo[9.4.0.0^2,7]pentadeca-1(11),2(7),3,5,12,14-hexaen-8-yl)-N-(1-methylindazol-5-yl)acetamide]: the IC50 on system Xc^− [1] and at system Xc^− [2] was 0.0398 to 0.1 µM in each case.
Turning to `Cc1cc2c(c(F)n1)-c1cccnc1C(O)C(=O)N2CC(=O)Nc1ccc(Br)c(Cl)c1` (single isomer, unassigned) [#213, Enantiomer (10S) or (10R) of N-(4-bromo-3-chloro-phenyl)-2-[(10S)-3-fluoro-10-hydroxy-5-methyl-9-oxo-4,8,12-triazatricyclo[9.4.0.0^2,7]pentadeca-1(11),2(7),3,5,12,14-hexaen-8-yl]acetamide], the IC50 at system Xc^− [1] and on system Xc^− [2] was 0.0158 to 0.0398 µM throughout.
